The subject of assay [1] is alpha-smooth muscle actin (α-SMA). The assay is described as follows: Immunolocalization of alpha-smooth muscle actin in 2D fibroblast culture (myofibroblast differentiation). Format: cell-based, human. As to the method:
Primary human dermal fibroblasts (HDF) were purchased from CELLnTEC, Bern. They were routinely grown in Dulbecco's modified Eagle's medium (DMEM) containing 10% FCS, 2 mM glutamine, and 100 U/ml penicillin/100 μg/ml streptomycin. Media, antibiotics, and glutamine were bought from Lonza. The cells were used at passage 5-15. Cells were trypsinized and seeded at 5000 cells/well in 200 μl into the inner wells of 96-well plates. The outer wells were loaded with sterile water. […] For control samples, 200p1 medium was added instead of specific stimuli. Alternatively, the cells were seeded into 384-well plates at 2500 cells/well directly together with test compounds or growth factors and WE or medium in a total volume of […].
After fixation with paraformaldehyde, the cells were incubated for 1 hour at room temperature with a monoclonal mouse-anti-human antibody against alpha-smooth muscle actin (α-SMA) from e-Bioscience, washed 3 times with PBS and developed with an Alexa Fluor-labelled donkey-anti-mouse IgG (Molecular Probes). The cells were washed 3 times with PBS and examined in a Zeiss ZEISS Observer.Z1 microscope, using the software AxioVision 48.

The next assay relates to IL-1ß. The assay is described as follows: IL-1ß secretion by HDF in the presence of wound exudate (ELISA). Type of assay: cell-based, human. Particulars: FIG. 22; WE #43 and #78 used with veliparib. As to the method: Primary human dermal fibroblasts (HDF) were purchased from CELLnTEC, Bern. They were routinely grown in Dulbecco's modified Eagle's medium (DMEM) containing 10% FCS, 2 mM glutamine, and 100 U/ml penicillin/100 μg/ml streptomycin. Media, antibiotics, and glutamine were bought from Lonza. The cells were used at passage 5-15. Cells were trypsinized and seeded at 5000 cells/well in 200 μl into the inner wells of 96-well plates. The outer wells were loaded with sterile water. The cells were allowed to adhere overnight and then incubated for 72 hours at 37° C. under the following conditions: graded compound concentrations or 20 ng/ml PDGF-BB (Tonbo Biosciences) in the absence or presence of different dilutions of sterile-filtered WE in medium. For control samples, 200p1 medium was added instead of specific stimuli. Alternatively, the cells were seeded into 384-well plates at 2500 cells/well directly together with test compounds or growth factors and WE or medium in a total volume of […].
At the end of the 72-hour incubation period, supernatants were removed for the determination of IL-1ß, and the cells were fixed with 4% paraformaldehyde (Morphisto) for 15 minutes at room temperature and washed 3 times with PBS. A control plate was fixed after the overnight adherence of the cells (day 1) to determine the starting cell number.
IL-1ß levels were determined with a commercial ELISA kit. The amount of IL-1ß contained in the wound exudate added to the cells was subtracted from the total IL-ß in the supernatants in order to determine the cytokine secreted by the cells.

The test system of assay [2] is primary human dermal fibroblasts (HDF). Nature of the assay: Fibroblast-derived matrix (FDM) formation assay (3D), with or without wound exudate. Format: cell-based. As to the method:
HDF cells were seeded at 5000 cells/well on day −3 into 96-well tissue culture plates (1250 cells/well for 384-well plates), which had been pre-coated for 1 hour at 37° C. with 0.2% gelatin solution (Sigma). When the cells reached confluence (=day 0), a matrix promoting supplement (vitamin C: 2-phospho-L-ascorbic acid trisodium salt, 100 μg/ml; Sigma) was added together with test samples containing PDGF-BB, TGF-ß1 or graded concentrations of compounds −/+WE as described for the HDF proliferation assay. After 4 days, medium was replaced by fresh vitamin C- and stimulus- as well as compound-containing medium, maintaining the conditions initiated on day 0. TGF-ß1 and PDGF-BB were included as positive controls to promote FDM formation and cell growth, respectively. After a total incubation time of 8 days, FDM production was measured in fixed cultures via SRB staining and evaluated as described above. In some cases, the experiment was stopped and evaluated already on day 4.
Low molecular weight compounds (see list in Table 1) were dissolved in DMSO (Bioreagent for cell culture, Sigma) at 10 mM or 100 mM and diluted at least 1:1000 in medium for cellular assays (final DMSO concentration ≤0.1%). Compounds were typically tested in half-logarithmic dilution series (1:3.33), starting at 10 μM or 100 μM as the highest compound concentration.
Cells were incubated with compounds for 72 hours in proliferation assays and up to 8 days for FDM assay (refreshed after 4 days). When compounds were tested for their effect on WE stimulation, the incubation of cells with compounds was started and ended simultaneously with WE-incubation.

Entries after “also recorded” stand apart in the source; their conditions may differ.

As for `C[C@]1(c2nc3c(C(N)=O)cccc3[nH]2)CCCN1` [veliparib, 2-((2R)-2-methylpyrrolidin-2-yl)-1H-benzimidazole-4-carboxamide], the “staining for α-SMA” value in assay [1] (absence of WE, TGF-ß 20 ng/ml, veliparib 10 μM) is on record as “has no effect; also recorded: had no effect”. Moreover, the “staining for α-SMA, veliparib in combination with TGF-ß” value in assay [1] (presence of WE #78, veliparib 10 μM + TGF-ß 20 ng/ml) is listed as “more strongly stained cells than veliparib alone”. Moreover, in the assay on IL-1ß, the “IL-1ß secretion induced by wound exudate” value is given as “reducing IL-1ß secretion”. Further, the “FDM formation, veliparib combined with glucocorticoid” value is “could be enhanced with glucocorticoids in another non-diabetic and non-immunosuppressed patient, but not vice versa; also recorded: could be enhanced with glucocorticoids, but not vice versa” in assay [2] (WE #49, non-diabetic, non-immunosuppressed patient (FIG. 8)); “enhances the effect of glucocorticoids” in assay [2] (WE #78, patient with diabetes, immunosuppression after kidney transplantation (FIG. 7)). Also, in assay [2] (WE present, microscopy (FIG. 6)), the “FDM formation, combination of veliparib with dexamethasone versus each alone” value is “even superior to each substance alone”. Moreover, in assay [2] (presence of WE #78 (FIG. 9)), the “fibroblast-derived matrix (FDM) formation” value is listed as “strong positive effect”. Moreover, in assay [2] (presence of wound exudate, WE not specified (FIG. 6: microscopy)), the “fibroblast-derived matrix (FDM/ECM) formation” value is given as ““cleaned up” WE-induced fibroblast matrix inhibition”.

The values are drawn from patent US20200129476A1, “PARP Inhibitor in Combination with a Glucocorticoid and/or Ascorbic Acid and/or a Protein Growth Factor for the Treatment of Impaired Wound Healing” (AKRIBES BIOMEDICAL GMBH, priority 2017, published 2020).
